Data on 3 molecules can be found in US20150190410A1, “USE OF CREATINE AND PHOSPHOCREATINE IN THE TREATMENT OF EPILEPSY AND ALCOHOL ADDICTION” (Dignity Health, priority 2012, published 2015).

The test system of assay [1] is GABAA receptor expressing cells. The assay can be described thus: Co-application with ethanol on GABAA receptor expressing cells. As to conditions: depends on concentration relative to ethanol. The class given is cell-based. An excerpt: Thus, in one embodiment, creatine, phosphocreatine and their analogs can be used to prevent and/or provide protection against alcohol addiction.
Alcoholism is a serious problem both to the individual, the individual's family, and society. Currently there is no compound that can effectively prevent alcoholism. Alcohol (Ethanol) acts as a positive allosteric modulator of extrasynaptic GABAA receptors. […] Thus creatine, phosphocreatine and their analogs may be used to prevent and/or provide protection against alcohol addiction.

Assay [2] has as its system extra-synaptic GABAA receptors. The assay can be described thus: Allosteric modulation of extra-synaptic GABAA receptors (expression cells; whole cell patch clamp). The assay is classed as cell-based. An excerpt:
FIG. 3 depicts, in accordance with an embodiment herein, utilizing whole cell patch clamp on primary cultured neuron (rat cortex) to confirm creatine's effect on extra-synaptic GABAA receptors.
On the technique in general: In patch-clamp work, channel activity is measured electrically.

In assay [3] the test system is atypical absence epilepsy rodent models. The assay can be described thus: AY9944 atypical absence epilepsy rodent model: seizure number and seizure time under creatine. The class given is in vivo, rat.
Assay [4] has the same test system. Described as above. The class given is in vivo, rat. As to conditions: for Seizure # Between 13:00:00 to 15:00:00: twice daily injection of creatine at 30 mg/kg, individual epileptic animals. The protocol:
• Induced via administering the cholesterol inhibitor AY9944 during postnatal developing period P2 to P21. • Epileptic seizure is chronic, resembling all the symptoms of atypical absence epilepsy • Failure to show ictal immobility • Slow spike-wave discharges • Cognitive impairments • Counterintuitive with application of GABA Positive allosteric modulators and Agonists. • Greater seizure susceptibility in female than male.
11 epileptic animals were treated initially with saline to establish base line (day 0), then treated with twice daily injection of creatine at 30 mg/kg (days 1-5). […] Specifically, the inventors performed the following: • Day 0—Control (saline injection) • Injection of creatine between days 1-5—twice daily injection of 30 mg/kg of creatine • Day #2 (30 mg/kg creatine) • Day #5 (30 mg/kg creatine)

Setting [5] is: Day 2 vs Day 0 saline control, 30 mg/kg twice daily, individual animals, 30 mg/kg.
Setting [6] is: Day 5 vs Day 0 saline control, 30 mg/kg twice daily, individual animals, 30 mg/kg.
[7] abbreviates: average of 11 animals, Day 2, 30 mg/kg twice daily.
Where [8] appears, read: average of 11 animals, Day 5, 30 mg/kg twice daily.

The structures appear in SMILES notation. Several values for one entry are separate records, joined by “and”; a condition that tells them apart may be missing. Identical values can stand only once.

For `CN(CC(=O)O)C(=N)NP(=O)(O)O` [phosphocreatine], the “effect on the GABAA receptor positive allosteric modulator effect of alcohol (ethanol)” value in assay [1] was “preventing or significantly diminishing”. In assay [2] (expression cells), the “effect on expression cells compared with creatine” value was “same effect as creatine”.

In the case of `CN(CC(=O)O)C(=N)N` [creatine], the “effect on the GABAA receptor positive allosteric modulator effect of alcohol (ethanol)” value in assay [1] is reported as “preventing or significantly diminishing”. Besides, the “duration of effect of a single dose compared to current antiepileptic drugs” value in assay [3] is given as “last much longer than conventional antiepileptic drugs”. Also, in assay [4] (Day 2, 30 mg/kg), the “Seizure # Between 13:00:00 to 15:00:00” value is 2 and 17 (2×) and 14 and 7 and 31 and 25 and 16 and 20 and 4 and 15. Besides, in assay [4] (setting [5]), the “% Seizure # Reduction, Day #2 Post Creatine/Control” value was 28.57% and 91.30% and 63.04% and 56.25% and 12.50% and 27.91% and 30.56% and 44.83% and 25.93% and 69.23% and 26.09%; the “% Total Seizure Time Reduction, Day #2 Post Creatine/Control” value is 63.25% and 80.95% and 92.74% and 82.31% and 52.13% and 40.86% and 76.08% and 73.42% and 89.95% and 85.75% and 74.05%. Also, the “Seizure # Between 13:00:00 to 15:00:00” value in assay [4] (Day 5, 30 mg/kg) is 5 (2×) and 21 and 18 and 4 and 26 and 23 and 13 and 16 and 10 and 15. Moreover, in assay [4] (setting [6]), the “% Seizure # Reduction, Day #5 Post Creatine/Control” value is 76.19% and 78.26% and 54.35% and 43.75% and 50.00% and 39.53% and 36.11% and 55.17% and 40.74% and 23.08% and 34.78%; the “% Total Seizure Time Reduction, Day #5 Post Creatine/Control” value was 86.37% and 70.56% and 58.23% and 70.52% and 46.23% and 35.72% and 80.58% and 85.99% and 92.36% and 36.75% and 74.61%. For the same molecule, in assay [4] (setting [7]), the “% Seizure # Reduction, Day #2 Post Creatine/Control, Average” value amounted to 43.29% and the “% Total Seizure Time Reduction, Day #2 Post Creatine/Control, Average” value was 73.77%. Besides, in assay [4] (setting [8]), the “% Seizure # Reduction, Day #5 Post Creatine/Control, Average” value stood at 48.36% and the “% Total Seizure Time Reduction, Day #5 Post Creatine/Control, Average” value was determined as 67.08%. Besides, in assay [4] (epileptic rodent model), the “reduction in duration of epileptic seizure events” value is recorded as “greater than 70%” and the “reduction in frequency of epileptic seizure events” value is given as “greater than 70%”. Besides, in assay [2], the “mode of action on extra-synaptic GABAA receptors” value was “partial negative allosteric modulator”.

In the case of `NC1=NCCN1CC(=O)O` [cyclocreatine], the “therapeutic effect compared with creatine” value in assay [4] (atypical absence epilepsy rodent models) is on record as “does not confer the same therapeutic effect as creatine”.
